Source: ChEMBL document CHEMBL6096683, “Novel Orthosteric/Allosteric Ligands of Cannabinoid Receptors: An Unexpected Pharmacological Profile” (J Med Chem, 2025)
Calls of active or inactive are those of the source. The calls are words filed in the database; no cut-off is given here.

Tests used:
Cannabinoid receptor 1 [1] = target: T1, Cannabinoid receptor 1 (Homo sapiens, UniProt P21554); test: Agonist activity at human CB1 receptor expressed in CHO cells assessed as inhibition of forskolin-induced cAMP production incubated for 90 mins in presence of CP55940 ligand by HitHunter assay; format: functional, cell-based
T1 sequence (P21554 whole entry): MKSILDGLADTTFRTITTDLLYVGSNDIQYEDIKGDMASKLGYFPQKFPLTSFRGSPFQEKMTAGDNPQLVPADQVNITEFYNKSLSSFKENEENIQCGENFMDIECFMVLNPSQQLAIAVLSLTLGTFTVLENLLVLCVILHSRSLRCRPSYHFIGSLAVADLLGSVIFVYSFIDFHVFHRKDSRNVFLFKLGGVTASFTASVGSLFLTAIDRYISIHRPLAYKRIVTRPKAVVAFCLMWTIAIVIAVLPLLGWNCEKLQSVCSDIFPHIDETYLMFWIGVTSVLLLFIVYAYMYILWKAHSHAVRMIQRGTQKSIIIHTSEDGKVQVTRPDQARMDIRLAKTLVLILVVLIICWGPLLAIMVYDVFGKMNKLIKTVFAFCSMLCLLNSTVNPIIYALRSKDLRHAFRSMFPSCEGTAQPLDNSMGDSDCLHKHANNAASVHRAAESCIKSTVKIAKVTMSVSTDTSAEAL

Cannabinoid receptor 1 [2] = target: T1, Cannabinoid receptor 1; test: Agonist activity at human CB1 receptor expressed in CHO cells assessed as inhibition of forskolin-induced cAMP production at 100 nM incubated for 90 mins in presence of GAT211 ligand by HitHunter assay relative to control; format: functional, cell-based
Cannabinoid receptor 1 [3] = target: T1, Cannabinoid receptor 1; test: Agonist activity at human CB1 receptor expressed in CHO cells assessed as inhibition of forskolin-induced cAMP production at 100 nM incubated for 90 mins in presence of FM6b ligand by HitHunter assay relative to control; format: functional, cell-based; conditions: filed as agonist
Cannabinoid receptor 1 [4] = target: T1, Cannabinoid receptor 1; test: Displacement of [3H]CP55940 from human CB1 receptor expressed in CHO cell membrane at 0.001 to 10 uM incubated for 2 hrs relative to control; format: cell membranes; conditions: dose 0.001-10 µM
Cannabinoid receptor 1 [5] = target: T1, Cannabinoid receptor 1; test: Agonist activity at human CB1 receptor expressed in CHO cells assessed as inhibition of forskolin-induced cAMP production incubated for 90 mins in presence of FM6b ligand by HitHunter assay; format: functional, cell-based
Cannabinoid receptor 2 [6] = target: T2, Cannabinoid receptor 2 (Homo sapiens, UniProt P34972); test: Displacement of [3H]CP55940 from human CB2 receptor expressed in CHO cell membrane at 0.001 to 10 uM incubated for 2 hrs relative to control; format: cell membranes; conditions: dose 0.001-10 µM
T2 sequence (P34972 whole entry): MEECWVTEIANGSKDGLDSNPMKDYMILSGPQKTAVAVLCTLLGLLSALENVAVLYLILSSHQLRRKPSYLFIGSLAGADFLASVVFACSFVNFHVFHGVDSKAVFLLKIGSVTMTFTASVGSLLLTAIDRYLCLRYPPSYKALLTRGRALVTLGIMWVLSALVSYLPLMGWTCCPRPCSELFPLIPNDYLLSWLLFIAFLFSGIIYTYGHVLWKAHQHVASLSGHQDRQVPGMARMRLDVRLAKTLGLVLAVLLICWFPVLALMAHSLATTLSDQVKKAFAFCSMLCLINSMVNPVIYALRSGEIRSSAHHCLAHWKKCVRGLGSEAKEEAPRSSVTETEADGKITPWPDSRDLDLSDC

Cannabinoid receptor 2 [7] = target: T2, Cannabinoid receptor 2; test: Agonist activity at human CB2 receptor expressed in CHO cells assessed as inhibition of forskolin-induced cAMP production at 10 uM incubated for 90 mins by HitHunter assay; format: functional, cell-based; conditions: filed as agonist
Cannabinoid receptor 1 [8] = target: T1, Cannabinoid receptor 1; test: Displacement of [3H]CP55940 from human CB1 receptor expressed in CHO cell membrane incubated for 2 hrs; format: cell membranes
Cannabinoid receptor 1 [9] = target: T1, Cannabinoid receptor 1; test: Agonist activity at human CB1 receptor expressed in CHO cells assessed as inhibition of forskolin-induced cAMP production at 100 nM incubated for 90 mins in presence of CP55940 ligand by HitHunter assay relative to control; format: functional, cell-based
HepG2 [10] = test: Induction of lipid accumulation in human HepG2 cells assessed as increase in lipolysis at 0.1 to 25 uM incubated for 24 hrs by Oil Red O staining based analysis; format: functional, cell-based; conditions: dose 0.1-25 µM
Cannabinoid receptor 1 [11] = target: T1, Cannabinoid receptor 1; test: Displacement of [3H]CP55940 from human CB1 receptor expressed in CHO cells at 0.001 to 10 uM; format: cell-based; conditions: filed as positive allosteric modulator, dose 0.001-10 µM
Cannabinoid receptor 2 [12] = target: T2, Cannabinoid receptor 2; test: Positive allosteric modulation at human CB2 receptor expressed in CHO cells assessed as inhibition of forskolin-induced cAMP production incubated for 90 mins in presence of FM6b by HitHunter assay; format: functional, cell-based
Cannabinoid receptor 2 [13] = target: T2, Cannabinoid receptor 2; test: Positive allosteric modulation at human CB2 receptor expressed in CHO cells assessed as inhibition of forskolin-induced cAMP production incubated for 90 mins in presence of CP55940 ligand by HitHunter assay; format: functional, cell-based
Cannabinoid receptor 2 [14] = target: T2, Cannabinoid receptor 2; test: Displacement of [3H]CP55940 from human CB2 receptor expressed in CHO cell membrane incubated for 2 hrs; format: cell membranes
Cannabinoid receptor 2 [15] = target: T2, Cannabinoid receptor 2; test: Displacement of [3H]CP55940 from human CB2 receptor expressed in CHO cells at 10 uM; format: cell-based; conditions: filed as positive allosteric modulator
Cannabinoid receptor 1 [16] = target: T1, Cannabinoid receptor 1; test: Positive allosteric modulation at human CB1 receptor expressed in CHO cells assessed as inhibition of forskolin-induced cAMP production incubated for 90 mins by HitHunter assay; format: functional, cell-based; conditions: filed as positive allosteric modulator
HepG2 [17] = test: Anti-steatosis activity against oleate/palmitate-induced human HepG2 cells assessed as induction of lipolysis at 25 uM incubated for 24 hrs; format: functional, cell-based
Cannabinoid receptor 2 [18] = target: T2, Cannabinoid receptor 2; test: Positive allosteric modulation at human CB2 receptor expressed in CHO cells assessed as inhibition of forskolin-induced cAMP production incubated for 90 mins in presence of FM6b by HitHunter assay relative to control; format: functional, cell-based; conditions: filed as positive allosteric modulator
Cannabinoid receptor 2 [19] = target: T2, Cannabinoid receptor 2; test: Displacement of [3H]CP55940 from human CB2 receptor expressed in CHO cells upto 1 uM; format: cell-based
Cannabinoid receptor 2 [20] = target: T2, Cannabinoid receptor 2; test: Agonist activity at human CB2 receptor expressed in CHO cells assessed as inhibition of forskolin-induced cAMP production at 0.001 to 10 uM incubated for 90 mins by HitHunter assay; format: functional, cell-based; conditions: dose 0.001-10 µM
Cannabinoid receptor 1 [21] = target: T1, Cannabinoid receptor 1; test: Positive allosteric modulation at human CB1 receptor expressed in CHO cells assessed as inhibition of forskolin-induced cAMP production incubated for 90 mins in presence of FM6b by HitHunter assay relative to control; format: functional, cell-based; conditions: filed as positive allosteric modulator
Cannabinoid receptor 2 [22] = target: T2, Cannabinoid receptor 2; test: Positive allosteric modulation at human CB2 receptor expressed in CHO cells assessed as inhibition of forskolin-induced cAMP production incubated for 90 mins in presence of CP55940 ligand by HitHunter assay relative to control; format: functional, cell-based; conditions: filed as positive allosteric modulator
Cannabinoid receptor 1 [23] = target: T1, Cannabinoid receptor 1; test: Agonist activity at human CB1 receptor expressed in CHO cells assessed as inhibition of forskolin-induced cAMP production incubated for 90 mins in presence of GAT211 ligand by HitHunter assay; format: functional, cell-based
Cannabinoid receptor 2 [24] = target: T2, Cannabinoid receptor 2; test: Agonist activity at human CB2 receptor expressed in CHO cells assessed as inhibition of forskolin-induced cAMP production incubated for 90 mins in presence of CP55940 ligand by HitHunter assay; format: functional, cell-based
Cannabinoid receptor 2 [25] = target: T2, Cannabinoid receptor 2; test: Agonist activity at human CB2 receptor expressed in CHO cells assessed as inhibition of forskolin-induced cAMP production incubated for 90 mins in presence of FM6b ligand by HitHunter assay; format: functional, cell-based
Cannabinoid receptor 2 [26] = target: T2, Cannabinoid receptor 2; test: Agonist activity at human CB2 receptor expressed in CHO cells assessed as inhibition of forskolin-induced cAMP production at 100 nM incubated for 90 mins in presence of CP55940 ligand by HitHunter assay relative to control; format: functional, cell-based; conditions: filed as agonist
Cannabinoid receptor 2 [27] = target: T2, Cannabinoid receptor 2; test: Agonist activity at human CB2 receptor expressed in CHO cells assessed as inhibition of forskolin-induced cAMP production at 100 nM incubated for 90 mins in presence of FM6b ligand by HitHunter assay relative to control; format: functional, cell-based; conditions: filed as agonist

Structure (SMILES)	EC50 (Cannabinoid receptor 1 [1]) [nM]	Emax (Cannabinoid receptor 1 [2]) [%]	Emax (Cannabinoid receptor 1 [3]) [%]	Emax (Cannabinoid receptor 1 [4]; filed as agonist) [%]	EC50 (Cannabinoid receptor 1 [5]) [nM]	Emax (Cannabinoid receptor 2 [6]; filed as agonist) [%]	Activity (Cannabinoid receptor 2 [7])	IC50 (Cannabinoid receptor 1 [8]) [nM]	IC50 (Cannabinoid receptor 2 [14]; read-out: pIC50 (converted)) [nM]	EC50 (Cannabinoid receptor 1 [23]) [nM]	Emax (Cannabinoid receptor 1 [4]) [%]	Emax (Cannabinoid receptor 1 [9]; filed as agonist) [%]	further results
Cc1c(Br)cc(C(=O)NC2CCCCCC2)c(=O)n1CCCn1cc(CCCCC(=O)NCC(c2ccccc2)c2c(-c3ccccc3)[nH]c3ccccc23)nn1 (stereo not given)	25.1	3.32	67	60	63.1	97	Active	0.631	–	–	–	–	Emax (Cannabinoid receptor 1 [9]): 31%
O=[N+]([O-])CC(c1ccccc1)c1c(-c2ccccc2)[nH]c2ccccc12 (stereo not given)	–	–	–	–	–	–	–	–	> 10000	–	–	–	Activity (HepG2 [10]): inactive; Emax (Cannabinoid receptor 1 [4]; filed as positive allosteric modulator): 140%; Activity (Cannabinoid receptor 1 [11]): Active; EC50 (Cannabinoid receptor 2 [12]): 170 nM; EC50 (Cannabinoid receptor 2 [13]): 0.06 nM; Activity (Cannabinoid receptor 2 [15]): Active; Activity (Cannabinoid receptor 1 [16]): Active; Activity (HepG2 [17]): inactive; Emax (Cannabinoid receptor 2 [18]): 98%; Activity (Cannabinoid receptor 2 [19]): inactive; Emax (Cannabinoid receptor 2 [6]): 29%; Activity (Cannabinoid receptor 2 [20]): No effect; Emax (Cannabinoid receptor 1 [21]): 85%; Emax (Cannabinoid receptor 2 [22]): 105%
Cc1c(Br)cc(C(=O)NC2CCCCCC2)c(=O)n1CCCn1cc(CCCC(=O)NCC(c2ccccc2)c2c(-c3ccccc3)[nH]c3ccccc23)nn1 (stereo not given)	25.1	0.335	120	–	631	160	Active	25.1	–	15.8	31	79	EC50 (Cannabinoid receptor 2 [24]): 7.94 nM; EC50 (Cannabinoid receptor 2 [25]): 398 nM; IC50 (Cannabinoid receptor 2 [14]; read-out: IC50): 100 nM; Emax (Cannabinoid receptor 2 [26]): 104%; Emax (Cannabinoid receptor 2 [27]): 73%
Cc1c(Br)cc(C(=O)NC2CCCCCC2)c(=O)n1CCCCCn1cc(CCCC(=O)NCC(c2ccccc2)c2c(-c3ccccc3)[nH]c3ccccc23)nn1 (stereo not given)	251	24	130	–	1580	44	Active	15.8	> 10000	5.01	0.12	122	–
Cc1c(Br)cc(C(=O)NC2CCCCCC2)c(=O)n1CCCCCn1cc(CCC(=O)NCC(c2ccccc2)c2c(-c3ccccc3)[nH]c3ccccc23)nn1 (stereo not given)	20	1.3	120	42	2000	80	Active	20	–	63.1	–	58	–
